# Read-outs that look alike come from different tables or passages of the source.
# What was measured:
# [1] = tested on: 2D rat cortical cultures; details: cited from earlier work; for AC50: rNFA mc5; for hitc CCTE_Shafer_MEA_dev_active_electrodes_number / hitc CCTE_Shafer_MEA_dev_burst_duration_mean / hitc CCTE_Shafer_MEA_dev_burst_rate / hitc CCTE_Shafer_MEA_dev_bursting_electrodes_number / hitc CCTE_Shafer_MEA_dev_correlation_coefficient_mean / hitc CCTE_Shafer_MEA_dev_firing_rate_mean / hitc CCTE_Shafer_MEA_dev_inter_network_spike_interval_mean / hitc CCTE_Shafer_MEA_dev_interburst_interval_mean / hitc CCTE_Shafer_MEA_dev_mutual_information_norm / hitc CCTE_Shafer_MEA_dev_network_spike_duration_std / hitc CCTE_Shafer_MEA_dev_network_spike_number / hitc CCTE_Shafer_MEA_dev_network_spike_peak / hitc CCTE_Shafer_MEA_dev_per_burst_interspike_interval / hitc CCTE_Shafer_MEA_dev_per_burst_spike_percent / hitc CCTE_Shafer_MEA_dev_per_network_spike_spike_number_mean / hitc CCTE_Shafer_MEA_dev_per_network_spike_spike_percent / hitc CCTE_Shafer_MEA_dev_spike_duration_mean: rNFA mc5 hit call; as to hitc CCTE Shafer MEA dev active electrodes number: key: 1 (active); 0 (inactive); as to hitc CCTE Shafer MEA dev burst duration mean: key: 1 (active); 0 (inactive); as to hitc CCTE Shafer MEA dev burst rate: key: 1 (active); 0 (inactive); as to hitc CCTE Shafer MEA dev bursting electrodes number: key: 1 (active); 0 (inactive); as to hitc CCTE Shafer MEA dev correlation coefficient mean: key: 1 (active); 0 (inactive); as to hitc CCTE Shafer MEA dev firing rate mean: key: 1 (active); 0 (inactive); as to hitc CCTE Shafer MEA dev inter network spike interval mean: key: 1 (active); 0 (inactive); as to hitc CCTE Shafer MEA dev interburst interval mean: key: 1 (active); 0 (inactive); as to hitc CCTE Shafer MEA dev mutual information norm: key: 1 (active); 0 (inactive); as to hitc CCTE Shafer MEA dev network spike duration std: key: 1 (active); 0 (inactive); as to hitc CCTE Shafer MEA dev network spike number: key: 1 (active); 0 (inactive); as to hitc CCTE Shafer MEA dev network spike peak: key: 1 (active); 0 (inactive); as to hitc CCTE Shafer MEA dev per burst interspike interval: key: 1 (active); 0 (inactive); as to hitc CCTE Shafer MEA dev per burst spike percent: key: 1 (active); 0 (inactive); as to hitc CCTE Shafer MEA dev per network spike spike number mean: key: 1 (active); 0 (inactive); as to hitc CCTE Shafer MEA dev per network spike spike percent: key: 1 (active); 0 (inactive); as to hitc CCTE Shafer MEA dev spike duration mean: key: 1 (active); 0 (inactive)
# [2] = tested on: BrainSpheres; assay: Cytotoxicity evaluation, resazurin assay (BrainSphere.Cyto); format: cell-based, human; details: for AC50: read-out: ac50 BrainSphere.Cyto; for hitc BrainSphere.Cyto: day 13, tcplfit2; for BMD BrainSphere.Cyto: tcplfit2 BMD at benchmark response (1.349*SD of baseline controls); for ACC BrainSphere.Cyto: tcplfit2 output ACC, activity cutoff in Supplemental Table 1; as to hitc BrainSphere.Cyto: key: 1 (active); 0 (inactive)
# Experimental: For the resazurin assay, BrainSpheres were cultured for 7 weeks in non-treated 6-well plates under gyratory shaking. Subsequently, the cells were exposed in the same manner as the HD-MEA plates. This assay was used to determine cell viability after exposure for 13 days to the different compounds. After exposure, resazurin diluted in PBS was added directly to the 6-well plates to a final concentration of 0.1 mg/ml. The plates were then put in an incubator for 3 h at 37 °C, 5% CO2. Then, 100 µl of the media was collected and transferred in a 96-well plate for fluorescence analysis, which was done at ex:530 nm/em:590 nm in a multi-well fluorometric reader CytoFluor series 4000 (PerSeptive Biosystems, Inc).
# Ten metrics were measured to evaluate changes in neural activity in the BrainSphere MEA assay (Table 3). Considering the complexity of the data which includes seven recording days for each single ROI in a well, an area under the curve (AUC) metric was used to reduce activity across time as described in previous publications (Brown et al. [2016]; Frank et al. [2017b]; Shafer et al. [2019]). […] For concentration–response modeling, the mean AUC values across all the BrainSpheres per well (technical replicates) was computed for each endpoint, such that each concentration included biological replicates from at least three separate wells on three separate plates, representing each individual experiment. The mean AUC values were used for concentration–response modeling using the R package tcplfit2 (version 0.1.6) (Sheffield et al. [2022]). Data were normalized as a percent of vehicle control wells by plate using the equation: resp.pc=rval-bval/bval×100 where resp.pc is the percent of control value, rval is the response value, and bval is the baseline value (defined as the mean of the vehicle control and the lowest tested concentration). […] The activity cutoff was defined as 3 times the median absolute deviation (bmad) of baseline values. A curve was defined as ‘active’ if the continuous hit call was ≥ 0.9. See Supplemental Table 1 for the bmad, activity cutoff threshold, SD, and benchmark response for each endpoint in the BrainSphere MEA. Potency was defined as the concentration at 50% maximal activity (AC50 log10 µM).
# [3] = tested on: 2D rat cortical cultures; details: cited from earlier work; for hitc CCTE_Shafer_MEA_dev_AB: rNFA mc5 hit call; as to hitc CCTE Shafer MEA dev active electrodes number: key: 1 (active); 0 (inactive); as to hitc CCTE Shafer MEA dev burst duration mean: key: 1 (active); 0 (inactive); as to hitc CCTE Shafer MEA dev burst rate: key: 1 (active); 0 (inactive); as to hitc CCTE Shafer MEA dev bursting electrodes number: key: 1 (active); 0 (inactive); as to hitc CCTE Shafer MEA dev correlation coefficient mean: key: 1 (active); 0 (inactive); as to hitc CCTE Shafer MEA dev firing rate mean: key: 1 (active); 0 (inactive); as to hitc CCTE Shafer MEA dev inter network spike interval mean: key: 1 (active); 0 (inactive); as to hitc CCTE Shafer MEA dev interburst interval mean: key: 1 (active); 0 (inactive); as to hitc CCTE Shafer MEA dev mutual information norm: key: 1 (active); 0 (inactive); as to hitc CCTE Shafer MEA dev network spike duration std: key: 1 (active); 0 (inactive); as to hitc CCTE Shafer MEA dev network spike number: key: 1 (active); 0 (inactive); as to hitc CCTE Shafer MEA dev network spike peak: key: 1 (active); 0 (inactive); as to hitc CCTE Shafer MEA dev per burst interspike interval: key: 1 (active); 0 (inactive); as to hitc CCTE Shafer MEA dev per burst spike percent: key: 1 (active); 0 (inactive); as to hitc CCTE Shafer MEA dev per network spike spike number mean: key: 1 (active); 0 (inactive); as to hitc CCTE Shafer MEA dev per network spike spike percent: key: 1 (active); 0 (inactive); as to hitc CCTE Shafer MEA dev spike duration mean: key: 1 (active); 0 (inactive)
# [4] = aenm active_electrodes_number, read-out: ac50 CCTE_Shafer_MEA_dev_active_electrodes_number
# [5] = aenm burst_duration_mean, read-out: ac50 CCTE_Shafer_MEA_dev_burst_duration_mean
# [6] = aenm burst_rate, read-out: ac50 CCTE_Shafer_MEA_dev_burst_rate
# [7] = aenm bursting_electrodes_number, read-out: ac50 CCTE_Shafer_MEA_dev_bursting_electrodes_number
# [8] = aenm correlation_coefficient_mean, read-out: ac50 CCTE_Shafer_MEA_dev_correlation_coefficient_mean
# [9] = aenm firing_rate_mean, read-out: ac50 CCTE_Shafer_MEA_dev_firing_rate_mean
# [10] = aenm mutual_information_norm, read-out: ac50 CCTE_Shafer_MEA_dev_mutual_information_norm
# [11] = aenm network_spike_duration_std, read-out: ac50 CCTE_Shafer_MEA_dev_network_spike_duration_std
# [12] = aenm network_spike_number, read-out: ac50 CCTE_Shafer_MEA_dev_network_spike_number
# [13] = aenm network_spike_peak, read-out: ac50 CCTE_Shafer_MEA_dev_network_spike_peak
# [14] = aenm per_burst_interspike_interval, read-out: ac50 CCTE_Shafer_MEA_dev_per_burst_interspike_interval
# [15] = aenm per_burst_spike_percent, read-out: ac50 CCTE_Shafer_MEA_dev_per_burst_spike_percent
# [16] = aenm per_network_spike_spike_number_mean, read-out: ac50 CCTE_Shafer_MEA_dev_per_network_spike_spike_number_mean
# [17] = aenm per_network_spike_spike_percent, read-out: ac50 CCTE_Shafer_MEA_dev_per_network_spike_spike_percent
# [18] = aenm spike_duration_mean, read-out: ac50 CCTE_Shafer_MEA_dev_spike_duration_mean
# [19] = aenm bursting_electrodes_number
# [20] = aenm correlation_coefficient_mean
# [21] = aenm inter_network_spike_interval_mean
# [22] = aenm network_spike_duration_std
# [23] = aenm per_burst_interspike_interval
# [24] = aenm per_network_spike_spike_number_mean
# [25] = aenm per_network_spike_spike_percent
# [26] = aenm inter_network_spike_interval_mean, read-out: ac50 CCTE_Shafer_MEA_dev_inter_network_spike_interval_mean
# [27] = aenm interburst_interval_mean, read-out: ac50 CCTE_Shafer_MEA_dev_interburst_interval_mean
# [28] = resazurin, after 13 days of exposure
# [29] = ref Brown et al. [2016], Carstens et al. [2022], Frank et al. [2017b], Shafer et al. [2019], ToxCast invitrodb (v4.2)
smiles,measurement,setting,value
CC1(C)[C@H](C(=O)O[C@H](C#N)c2cccc(Oc3ccccc3)c2)[C@@H]1C=C(Br)Br [Deltamethrin],AC50,[1]; [4],8890 nM
same,AC50,[1]; [5],5290 nM
same,AC50,[1]; [6],3860 nM
same,AC50,[1]; [7],3710 nM
same,AC50,[1]; [8],2040 nM
same,AC50,[1]; [9],3100 nM
same,AC50,[1]; [10],641 nM
same,AC50,[1]; [11],3820 nM
same,AC50,[1]; [12],853 nM
same,AC50,[1]; [13],7540 nM
same,AC50,[1]; [14],15000 nM
same,AC50,[1]; [15],7160 nM
same,AC50,[1]; [16],3960 nM
same,AC50,[1]; [17],1800 nM
same,AC50,[1]; [18],6400 nM
same,hitc CCTE_Shafer_MEA_dev_active_electrodes_number,[1]; aenm active_electrodes_number,1
same,hitc CCTE_Shafer_MEA_dev_burst_duration_mean,[1]; aenm burst_duration_mean,1
same,hitc CCTE_Shafer_MEA_dev_burst_rate,[1]; aenm burst_rate,1
same,hitc CCTE_Shafer_MEA_dev_bursting_electrodes_number,[1]; [19],1
same,hitc CCTE_Shafer_MEA_dev_correlation_coefficient_mean,[1]; [20],1
same,hitc CCTE_Shafer_MEA_dev_firing_rate_mean,[1]; aenm firing_rate_mean,1
same,hitc CCTE_Shafer_MEA_dev_inter_network_spike_interval_mean,[1]; [21],0
same,hitc CCTE_Shafer_MEA_dev_interburst_interval_mean,[1]; aenm interburst_interval_mean,0
same,hitc CCTE_Shafer_MEA_dev_mutual_information_norm,[1]; aenm mutual_information_norm,1
same,hitc CCTE_Shafer_MEA_dev_network_spike_duration_std,[1]; [22],1
same,hitc CCTE_Shafer_MEA_dev_network_spike_number,[1]; aenm network_spike_number,1
same,hitc CCTE_Shafer_MEA_dev_network_spike_peak,[1]; aenm network_spike_peak,1
same,hitc CCTE_Shafer_MEA_dev_per_burst_interspike_interval,[1]; [23],1
same,hitc CCTE_Shafer_MEA_dev_per_burst_spike_percent,[1]; aenm per_burst_spike_percent,1
same,hitc CCTE_Shafer_MEA_dev_per_network_spike_spike_number_mean,[1]; [24],1
same,hitc CCTE_Shafer_MEA_dev_per_network_spike_spike_percent,[1]; [25],1
same,hitc CCTE_Shafer_MEA_dev_spike_duration_mean,[1]; aenm spike_duration_mean,1
same,Cytotoxicity / cell viability in the BrainSphere resazurin assay (in words),[2],magnitude of the response was not sufficient to indicate a positive response
same,AC50,"[2]; Homo sapiens, 312 h, resazurin, day 13, Supplement 3 prints it also for curves with hit call 0",45000 nM
same,Cytotoxicity hit,[2]; human,0
same,hitc BrainSphere.Cyto,[2]; resazurin,0
same,BMD BrainSphere.Cyto,[2],102 µM
same,hitc CCTE_Shafer_MEA_dev_AB,[3]; cytotoxicity AlamarBlue,0
[CH3][Hg][Cl] [Methylmercury],AC50,[1]; [4],360 nM
same,AC50,[1]; [5],260 nM
same,AC50,[1]; [6],207 nM
same,AC50,[1]; [7],370 nM
same,AC50,[1]; [8],306 nM
same,AC50,[1]; [9],177 nM
same,AC50,[1]; [26],6 nM
same,AC50,[1]; [27],340 nM
same,AC50,[1]; [10],134 nM
same,AC50,[1]; [11],164 nM
same,AC50,[1]; [12],87 nM
same,AC50,[1]; [13],356 nM
same,AC50,[1]; [14],322 nM
same,AC50,[1]; [15],306 nM
same,AC50,[1]; [16],536 nM
same,AC50,[1]; [17],309 nM
same,AC50,[1]; [18],275 nM
same,hitc CCTE_Shafer_MEA_dev_active_electrodes_number,[1]; aenm active_electrodes_number,1
same,hitc CCTE_Shafer_MEA_dev_burst_duration_mean,[1]; aenm burst_duration_mean,1
same,hitc CCTE_Shafer_MEA_dev_burst_rate,[1]; aenm burst_rate,1
same,hitc CCTE_Shafer_MEA_dev_bursting_electrodes_number,[1]; [19],1
same,hitc CCTE_Shafer_MEA_dev_correlation_coefficient_mean,[1]; [20],1
same,hitc CCTE_Shafer_MEA_dev_firing_rate_mean,[1]; aenm firing_rate_mean,1
same,hitc CCTE_Shafer_MEA_dev_inter_network_spike_interval_mean,[1]; [21],1
same,hitc CCTE_Shafer_MEA_dev_interburst_interval_mean,[1]; aenm interburst_interval_mean,1
same,hitc CCTE_Shafer_MEA_dev_mutual_information_norm,[1]; aenm mutual_information_norm,1
same,hitc CCTE_Shafer_MEA_dev_network_spike_duration_std,[1]; [22],1
same,hitc CCTE_Shafer_MEA_dev_network_spike_number,[1]; aenm network_spike_number,1
same,hitc CCTE_Shafer_MEA_dev_network_spike_peak,[1]; aenm network_spike_peak,1
same,hitc CCTE_Shafer_MEA_dev_per_burst_interspike_interval,[1]; [23],1
same,hitc CCTE_Shafer_MEA_dev_per_burst_spike_percent,[1]; aenm per_burst_spike_percent,1
same,hitc CCTE_Shafer_MEA_dev_per_network_spike_spike_number_mean,[1]; [24],1
same,hitc CCTE_Shafer_MEA_dev_per_network_spike_spike_percent,[1]; [25],1
same,hitc CCTE_Shafer_MEA_dev_spike_duration_mean,[1]; aenm spike_duration_mean,1
same,Cytotoxicity / cell viability in the BrainSphere resazurin assay (in words),[2]; day 13 of exposure,magnitude of the response was not sufficient to indicate a positive response
same,Cytotoxicity hit,[2]; [28],0
same,hitc BrainSphere.Cyto,[2]; resazurin,0
same,AC50,"[2]; resazurin, day 13, Supplement 3 prints it also for curves with hit call 0",190 nM
same,BMD BrainSphere.Cyto,[2],0.15 µM
same,ACC BrainSphere.Cyto,[2],0.18 µM
same,Top BrainSphere.Cyto,"[2]; top of winning model, response normalized as percent of vehicle control, negative = decrease",−10
same,hitc CCTE_Shafer_MEA_dev_AB,[3]; cytotoxicity AlamarBlue,1
same,AC50,"[3]; read-out: ac50 CCTE_Shafer_MEA_dev_AB, rNFA mc5, cytotoxicity AlamarBlue",283 nM
same,Cytotoxicity in the resazurin assay of the rNFA (in words),[3]; [29],demonstrating cytotoxicity in the rNFA
C/C(=C/C=C/[C@@H](C)C(=O)O)[C@H]1CN[C@H](C(=O)O)[C@H]1CC(=O)O [Domoic acid],AC50,[1]; [4],970 nM
same,AC50,[1]; [5],992 nM
same,AC50,[1]; [6],131 nM
same,AC50,[1]; [7],1280 nM
same,AC50,[1]; [8],1560 nM
same,AC50,[1]; [9],68 nM
same,AC50,[1]; [26],160 nM
same,AC50,[1]; [27],32 nM
same,AC50,[1]; [10],51 nM
same,AC50,[1]; [11],259 nM
same,AC50,[1]; [12],22 nM
same,AC50,[1]; [13],1830 nM
same,AC50,[1]; [14],1330 nM
same,AC50,[1]; [15],2060 nM
same,AC50,[1]; [16],1050 nM
same,AC50,[1]; [17],2340 nM
same,AC50,[1]; [18],1120 nM
same,hitc CCTE_Shafer_MEA_dev_active_electrodes_number,[1]; aenm active_electrodes_number,1
same,hitc CCTE_Shafer_MEA_dev_burst_duration_mean,[1]; aenm burst_duration_mean,1
same,hitc CCTE_Shafer_MEA_dev_burst_rate,[1]; aenm burst_rate,1
same,hitc CCTE_Shafer_MEA_dev_bursting_electrodes_number,[1]; [19],1
same,hitc CCTE_Shafer_MEA_dev_correlation_coefficient_mean,[1]; [20],1
same,hitc CCTE_Shafer_MEA_dev_firing_rate_mean,[1]; aenm firing_rate_mean,1
same,hitc CCTE_Shafer_MEA_dev_inter_network_spike_interval_mean,[1]; [21],1
same,hitc CCTE_Shafer_MEA_dev_interburst_interval_mean,[1]; aenm interburst_interval_mean,1
same,hitc CCTE_Shafer_MEA_dev_mutual_information_norm,[1]; aenm mutual_information_norm,1
same,hitc CCTE_Shafer_MEA_dev_network_spike_duration_std,[1]; [22],1
same,hitc CCTE_Shafer_MEA_dev_network_spike_number,[1]; aenm network_spike_number,1
same,hitc CCTE_Shafer_MEA_dev_network_spike_peak,[1]; aenm network_spike_peak,1
same,hitc CCTE_Shafer_MEA_dev_per_burst_interspike_interval,[1]; [23],1
same,hitc CCTE_Shafer_MEA_dev_per_burst_spike_percent,[1]; aenm per_burst_spike_percent,1
same,hitc CCTE_Shafer_MEA_dev_per_network_spike_spike_number_mean,[1]; [24],1
same,hitc CCTE_Shafer_MEA_dev_per_network_spike_spike_percent,[1]; [25],1
same,hitc CCTE_Shafer_MEA_dev_spike_duration_mean,[1]; aenm spike_duration_mean,1
same,Bioactivity in the rNFA (in words),[1]; [29],alter multiple parameters of network formation
same,AC50,"[2]; Homo sapiens, 312 h",5000 nM
same,Cytotoxicity / cell viability in the BrainSphere resazurin assay (in words),[2]; day 13 of exposure,magnitude of the response was not sufficient to indicate a positive response
same,Cytotoxicity hit,[2]; [28],0
same,hitc BrainSphere.Cyto,[2]; resazurin,0
same,BMD BrainSphere.Cyto,[2],4.5 µM
same,ACC BrainSphere.Cyto,[2],5.4 µM
same,hitc CCTE_Shafer_MEA_dev_AB,[3]; cytotoxicity AlamarBlue,0

# Source: publication PMC12198282, “Application of a high-density microelectrode array assay using a 3D human iPSC-derived brain microphysiological system model for in vitro neurotoxicity screening of environmental compounds” (Archives of Toxicology, 2025)
